Read-outs that look alike come from different tables or passages of the source.

Data set [1] deals with HeLa cells.
The target of data set [2] is T1, Avian Sarcoma Virus integrase (UniProt P03354).
T1 sequence (P03354 1281-1567): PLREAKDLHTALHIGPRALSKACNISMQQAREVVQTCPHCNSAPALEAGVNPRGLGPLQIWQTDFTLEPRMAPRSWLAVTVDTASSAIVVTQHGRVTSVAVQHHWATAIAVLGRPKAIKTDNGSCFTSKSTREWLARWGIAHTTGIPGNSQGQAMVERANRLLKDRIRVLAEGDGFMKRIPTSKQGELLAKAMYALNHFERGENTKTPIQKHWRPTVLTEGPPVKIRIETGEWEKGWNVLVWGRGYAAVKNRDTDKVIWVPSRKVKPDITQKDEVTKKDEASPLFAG
Kind of data set: Specificity: single end and concerted integration in vitro, ASV integrase. The data set is classed as biochemical. The note with it: Table 6.

In data set [3] the test system is Envelope pseudotyped virus particles infecting HeLa cells. The data set is described as follows: Inhibition of infectivity, single round GFP reporter virus, percent GFP positive cells. The note with it: read-out: Infectivity EC50.
Data set [4] deals with HeLa cells. Kind of data set: Cell toxicity during the infection experiment (Tox/Infect), 24 hours exposure. The note with it: only 24 hours of exposure.
Data set [5] addresses Prototype Foamy Virus (PFV) integrase (Human spumaretrovirus, UniProt P14350). The data set is described as follows: Specificity: single end and concerted integration in vitro, PFV integrase. The data set is classed as biochemical. The note with it: Table 6.
Data set [6] has as its target T2, HIV IN (Wild-type monomer) (Human immunodeficiency virus type 1 group M subtype B, UniProt P04585).
T2 construct: 1 uM HIV IN (Wild-type monomer)
The data set is classed as biochemical, HIV-1. The note with it: for I.I.(K Counts) CI/SI: ratio concerted/single end integration counts.

Setting [7] is: HeLa cells, compound exposure for 3 days, preliminary.
Setting [8] is: Table 1, cross validation assay at compound concentration of 10 uM.
[9] abbreviates: Table 5, concerted integration, read-out: Concerted IC50.
[10] abbreviates: Table 5, single-end integration, read-out: Single End IC50.
Where [11] appears, read: Table 6, read-out: HIV Concerted IC50.
Where [12] appears, read: Table 6, read-out: HIV Single End IC50.

As a reminder, the EC50 is the concentration needed to bring the measured effect to its halfway point. As for `Cn1ncnc2c(=O)n(C)c(=O)nc1-2` [Formula I-1], the “Toxicity LD50” value in data set [1] (setting [7]) came out at 0.43 µM. The IC50 in data set [2] (read-out: ASV Concerted IC50) was more than 100 µM; in data set [2] (read-out: ASV Single End IC50) it was more than 100 µM; in data set [5] (read-out: PFV Concerted IC50), more than 1000 µM; in data set [5] (read-out: PFV Single End IC50), more than 1000 µM; in data set [6] (Table 1, read-out: IC50 (concerted integration)) it was 0.2 µM; in data set [6] (setting [9]), 0.2 µM. Besides, the IC50 in data set [6] (setting [10]) was 1.25 µM; in data set [6] (setting [11]), 0.2 µM; in data set [6] (setting [12]), 1.25 µM. In addition, the EC50 in data set [3] was 0.3 µM. For the same molecule, the “Tox/Infect LD50” value in data set [4] was more than 5 µM. Besides, the “Relative % concerted integration” value in data set [6] (setting [8]) is 3.84%. Also, in data set [6] (Table 4, Form F3 (concerted integration), 0.001 uM, read-out: Rel % Activity), the activity at 0.001 µM turned out to be 99.6%. The activity at 0.005 µM is 83.8% in data set [6] (Table 4, Form F3 (concerted integration), 0.005 uM, read-out: Rel % Activity) and 106% in data set [6] (read-out: Rel % Activity). Further, the activity at 0.01 µM in data set [6] (Table 4, Form F3 (concerted integration), 0.01 uM, read-out: Rel % Activity) was 92.4%. Further, in data set [6] (Table 4, Form F3 (concerted integration), 0.05 uM, read-out: Rel % Activity), the activity at 0.05 µM was 78.2%. The activity at 0.1 µM in data set [6] (Table 4, Form F3 (concerted integration), 0.1 uM, read-out: Rel % Activity) was determined as 75.3%. Also, the activity at 0.5 µM in data set [6] (Table 4, Form F3 (concerted integration), 0.5 uM, read-out: Rel % Activity) is 17.4%. Also, in data set [6] (Table 4, Form F3 (concerted integration), 1 uM, read-out: Rel % Activity), the activity at 1 µM is 6.42%. For the same molecule, the activity at 5 µM in data set [6] (Table 4, Form F3 (concerted integration), 5 uM, read-out: Rel % Activity) stood at 0.705%. In addition, the activity at 10 µM in data set [6] (Table 4, Form F3 (concerted integration), 10 uM, read-out: Rel % Activity) came to 0.419%. Further, the activity at 50 µM in data set [6] (Table 4, Form F3 (concerted integration), 50 uM, read-out: Rel % Activity) was found to be 0.366%. Further, the activity at 100 µM in data set [6] (Table 4, Form F3 (concerted integration), 100 uM, read-out: Rel % Activity) stood at 0.453%. Further, in data set [6] (Table 4, Form F3 (concerted integration), 500 uM, read-out: Rel % Activity), the activity at 500 µM turned out to be 0.433%. The activity at 1000 µM in data set [6] (Table 4, Form F3 (concerted integration), 1000 uM, read-out: Rel % Activity) was 1.34%. The “I.I.(K Counts) CI/SI” value in data set [6] (0.001 uM) came out at 1.336; in data set [6] (0.005 uM), 1.067; in data set [6] (0.01 uM), 1.193; in data set [6] (0.05 uM), 1.007; in data set [6] (0.1 uM), 0.978; in data set [6] (0.5 uM), 0.331. In addition, the “I.I.(K Counts) CI/SI” value in data set [6] (1 uM) stood at 0.159; in data set [6] (5 uM), 0.034; in data set [6] (10 uM) it was 0.022; in data set [6] (50 uM), 0.020; in data set [6] (100 uM) it was 0.026; in data set [6] (500 uM), 0.033. Moreover, the “I.I.(K Counts) CI/SI” value in data set [6] (1000 uM) is 0.107.
For `CCn1nc(-c2ccccn2)nc2c(=O)n(C)c(=O)nc1-2` [Formula I-2], the “Relative % concerted integration” value in data set [6] (setting [8]) is on record as 6.33%.
Same read-out and setting: under `CCn1nc(-c2cccs2)nc2c(=O)n(C)c(=O)nc1-2` [Formula I-3] stands 2.07%; under `CCn1nc(-c2cc(Br)ccc2F)nc2c(=O)n(C)c(=O)nc1-2` [Formula I-4], 0.26%; under `CCn1nc(-c2ccc(C(F)(F)F)cc2)nc2c(=O)n(C)c(=O)nc1-2` [Formula I-5], 0.72%.
For the molecule `CCn1nc(-c2cc(Br)cs2)nc2c(=O)n(C)c(=O)nc1-2` [Formula I-6], the “Relative % concerted integration” value in data set [6] (setting [8]) came out at 1.72%.
The same measure, in the same setting: in the case of `CCCc1nc2c(=O)n(C)c(=O)nc-2n(C)n1` [Formula I-7] it was 0.07%.
As for `Cn1nc(-c2ccc(F)cc2)nc2c(=O)n(C)c(=O)nc1-2` [Formula I-8], the “Relative % concerted integration” value in data set [6] (setting [8]) is 0.42%.
Same read-out and setting: under `Cn1nc(-c2ccccc2)nc2c(=O)n(C)c(=O)nc1-2` [Formula I-9] stands 2.73%; under `Cn1nc(-c2ccc(C(F)(F)F)cc2)nc2c(=O)n(C)c(=O)nc1-2` [Formula I-10], 1.56%.
With `Cn1nc(/C=C\c2ccccc2)nc2c(=O)n(C)c(=O)nc1-2` [Formula I-11], in data set [6] (setting [8]), the “Relative % concerted integration” value worked out at 1.76%.
`Cn1nc(-c2ccc([N+](=O)[O-])cc2)nc2c(=O)n(C)c(=O)nc1-2` [Formula I-12]: the “Relative % concerted integration” value in data set [6] (setting [8]) is 3.26%.
Consider `CCc1ccc(-c2nc3c(=O)n(C)c(=O)nc-3n(CC)n2)cc1` [Formula I-13], for which, in data set [1] (human, 3 days), the “Toxicity LD50” value amounted to 3.2 µM. Moreover, the “Relative % concerted integration” value in data set [6] is listed as 7.07% (IC50 of 0.27 μM). The IC50 in data set [6] (Concerted IC50) was 0.27 µM; in data set [6] (IC50 (concerted integration)), 0.27 µM; in data set [6] (Single End IC50), 1.4 µM.
As to `O=C(O)CCCCCNc1ccc([N+](=O)[O-])c2nonc12` [II-2], in data set [1] (setting [7]), the “Toxicity LD50” value was more than 50 µM. For the same molecule, the IC50 in data set [6] (Concerted IC50) is 500 µM; in data set [6] (Single End IC50), more than 1000 µM.
Consider `Nc1ccc(N2CCCCC2)c2nonc12` [II-3], for which the “Toxicity LD50” value in data set [1] (human, 3 days) was determined as 25 µM. The IC50 in data set [6] (Concerted IC50) is 15 µM; in data set [6] (Single End IC50), more than 1000 µM.
Regarding `O=C(CCCCCNc1ccc([N+](=O)[O-])c2nonc12)ON1C(=O)CCC1=O` [II-4], the “Toxicity LD50” value in data set [1] (setting [7]) was more than 50 µM. Also, the IC50 in data set [2] (read-out: ASV Concerted IC50) is 53 µM; in data set [2] (read-out: ASV Single End IC50) it was 175 µM; in data set [5] (read-out: PFV Concerted IC50), more than 390 µM; in data set [5] (read-out: PFV Single End IC50) it was more than 350 µM; in data set [6] (setting [9]), 16 µM; in data set [6] (setting [10]), 71 µM. Further, the values for the IC50 in data set [6] (setting [11]) and in data set [6] (setting [12]) were 16 µM and 65 µM, respectively. The EC50 in data set [3] was found to be 5 µM. Moreover, the “Tox/Infect LD50” value in data set [4] is more than 20 µM.
In the case of `Cc1nnc(C(=O)NC(C)(C)c2nc(C(=O)NCc3ccc(F)cc3)c(O)c(=O)n2C)o1` [RAL, Raltegravir, reference compound], the “Toxicity LD50” value in data set [1] (setting [7]) is more than 20 µM. Moreover, the IC50 in data set [2] (read-out: ASV Concerted IC50) was 0.6 µM; in data set [2] (read-out: ASV Single End IC50), 22 µM; in data set [5] (read-out: PFV Concerted IC50), 1 µM; in data set [5] (read-out: PFV Single End IC50), less than 10 µM. In addition, the EC50 in data set [3] is 0.05 µM. Also, the “Tox/Infect LD50” value in data set [4] is more than 10 µM.

Source of the values: US11389455B2, “Inhibitors of HIV-1 integrase multimerization” (Institute for Cancer Research, priority 2017, dated 2022).
